Reference: patent publication EP0655460B1, “Pharmacotherapeutical use of glutathione derivatives” (Ohlenschläger, Gerhard, Dr. med., priority 1987, dated 1989)
Where two headings read alike, the source gives them in different places.

Tests used:
[1] = tested on: Glukose-6-Phosphat-Dehydrogenase; details: same conditions as 1.1 (0,5 mg, 37°C, 30 Minuten); n = 22, mean ± SD; Leerwert 148 ± 22
Protocol: (§1) Von 20 Patienten mit unterschiedlichen Erkrankungen wurden jeweils 10 ml menschlichen Venenblutes entnommen und dessen Gerinnungsfähigkeit durch Zusatz von Heparin aufgehoben. Als Parameter für die optimale Erythrozytenfunktion wurde vor und nach der Inkubation mit 0,5 mg reduziertem Glutathion bei 37°C während eines Zeitraumes von 30 Minuten der Gehalt an intraerythrozytärem reduziertem Glutathion bestimmt.
(§2) 1.2) In-vitro-Versuch an Zellensystemen menschlicher Erythrozyten:
(§3) Unter denselben Bedingungen wie bei vorstehend beschriebenem Versuch wurden die Enzyme Glukose-6-Phosphat-Dehydrogenase und Glutathion-Reduktase aus Erythrozyten von 22 Patienten in vitro untersucht.

[2] = target: Glutathion-Reduktase (Homo sapiens, UniProt P00390); details: same conditions as 1.1 (0,5 mg, 37°C, 30 Minuten); n = 22, mean ± SD; Leerwert 9,5 ± 0,8
Glutathion-Reduktase, sequence (P00390 44-522): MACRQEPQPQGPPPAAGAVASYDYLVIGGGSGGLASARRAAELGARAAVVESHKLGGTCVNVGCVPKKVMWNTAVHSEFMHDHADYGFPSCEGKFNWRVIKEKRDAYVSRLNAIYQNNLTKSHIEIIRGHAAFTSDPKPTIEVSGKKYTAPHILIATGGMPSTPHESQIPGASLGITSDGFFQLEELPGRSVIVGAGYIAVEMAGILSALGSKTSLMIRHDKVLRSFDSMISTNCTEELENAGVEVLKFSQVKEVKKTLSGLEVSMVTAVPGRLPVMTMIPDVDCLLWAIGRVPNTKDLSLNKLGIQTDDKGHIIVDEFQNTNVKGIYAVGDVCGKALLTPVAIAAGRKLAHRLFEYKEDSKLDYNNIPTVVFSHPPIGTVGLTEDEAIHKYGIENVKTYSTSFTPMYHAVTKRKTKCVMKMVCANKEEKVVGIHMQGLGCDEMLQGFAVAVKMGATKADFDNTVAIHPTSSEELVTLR
Protocol: as §1, §2, §3

[3] = tested on: Redoxstatus des Blutes; details: Kaninchen, Ohrvenenblut, 10 mg/kg intravenös, 5 - 10 Minuten after application, after load, n = 30, mean ± SD
Protocol: Bei 5 verschiedenen Kaninchen wurden in 30 Versuchen im venösen Blut folgende Parameter nach der Methode und mit dem gerät VINCENT gemessen: • Ohm'scher Widerstand: r • Redoxpotential EH bzw. Elektronenpotential: rH2 • pH-Wert: pH.
Die Werte wurden im Ohrvenenblut nach definierter Sauerstoffmangel-Belastung gemessen.
Danach wurde den Tieren reduziertes Glutathion in einer Dosis von 10 mg/kg Körpergewicht intravenös verabreicht.
5 - 10 Minuten nach der Applikation von reduziertem Glutathion wurden folgende Werte ermittelt:
Randbedingungen: Temperatur 20°C, Luftdruck 767 mm Hg.

[4] = tested on: Redoxstatus des Blutes; details: human venous blood, 600 mg langsam intravenös, 10 Minuten after application, after load, n = 50, mean ± SD
Protocol: 2.2) Selbstversuch am Menschen zur Verbesserung und/oder zur Normalisierung des Redorstatus des Blutes:
Im menschlichen Venenblut wurden nach definierter Sauerstoff-Mangel-Belastung die gleichen Parameter bestimmt wie im vorstehend gegchilderten Versuch. Insgesamt wurden 50 Versuche an verschiedenen Tagen durchgeführt.
Danach wurde-reduziertes Glutathion in einer Dosis von 600 mg langsam intravenös verabreicht.
Randbedingungen: Temperatur 20°C, Luftdruck 758 - 770 mm Hg.

[5] = tested on: malignen Melanoms vom Menschen; details: 4 mice, 10^6 melanoma cells, 250 mg three times weekly
From the text: 2.3) Versuch an 8 gesunden Graumäusen nach Transplantation eines malignen Melanoms vom Menschen.
In Fig. 1 ist das Wachstum des Tumors in Abhängigkeit von der Zeit dargestellt.

[6] = tested on: malignen Melanoms vom Menschen; details: 300 mg three times weekly
Protocol: 2.4) Versuch an 40 gesunden Graumäusen nach Transplantation eines malignen Melanoms vom Menschen.
40 gesunden Graumäusen wurden je 10^6 maligne Melanomzellen überimpft.
30 Tiere wurden vom Beginn der Versuchsreihe an drei mal wöchentlich mit je 300 mg reduziertem Glutathion behandelt.

[7] = Toxicity of the therapeutic dosage in small animals; type: in vivo; details: small animals such as Graumäusen, Wistar-Ratten und Kaninchen; therapeutic dosage (2 - 5 mg/kg for man)
Protocol: Die therapeutische Dosierung, die sich im Tierversuch an Kleintieren wie Graumäusen, Wistar-Ratten und Kaninchen als untoxisch erwiesen hat, liegt für den Menschen in einem Bereich von 2 - 5 mg/kg Körpergewicht für eine Einzeldosis bei langsamer intravenöser Injektion, wobei das Injektionsvolumen 5 ml beträgt mit einem Gehalt an reduziertem Glutathion von 150 mg.

[8] = cited from earlier work
[9] = cited from earlier work; remark: listed apart in the source
[10] = cited from earlier work; remark: listed apart in the source
[11] = 30 treated mice, 10^6 melanoma cells

**Q.** Which “Glukose-6-Phosphat-Dehydrogenase, Werte nach Inkubation” value [1] does the source give for `N[C@@H](CCC(=O)N[C@@H](CS)C(=O)NCC(=O)O)C(=O)O` [reduziertes Glutathion, gamma-Glutamyl-cysteinyl-glycin] here?
**A.** The value was 179 ± 16 mU/ 10^9 Erys.

**Q.** What about the “Glutathion-Reduktase, Werte nach Inkubation” value [2] of the same molecule?
**A.** Its value is 11,3 ± 1,2 U/ 10^11 Erys.

**Q.** And the pH-Wert ([3]; without: 7,38 ± 0,21)?
**A.** Its pH-Wert is “pH = 7,15 ± 0,16”.

**Q.** And the “Ohm'scher Widerstand r” value ([3]; without: 199 ± 12)?
**A.** Its value is “r = 202 ± 14 Ohm/cm^3”.

**Q.** And the pH-Wert ([4]; without: 7,41 ± 0,18)?
**A.** The pH-Wert was “pH = 7,23 ± 0,11”.

**Q.** What about the “Ohm'scher Widerstand r” value ([4]; without: 197 ± 14,5) of the same molecule?
**A.** Its value is “r = 204 ± 12,3 Ohm/cm^3”.

**Q.** What about the Überleben ([5]; controls died within 8 - 14 Tagen) of the same molecule?
**A.** The Überleben was “überlebten bis zur siebten Woche”.

**Q.** And the Tumorwachstum ([5]; versus untreated controls)?
**A.** The Tumorwachstum was “deutlich langsameres Tumorwachstum”.

**Q.** What about the “weitere gestorbene Tiere innerhalb 20 Tagen” value [6, 11] of the same molecule?
**A.** The value was “fünf”.

**Q.** What about the “weitere gestorbene Tiere innerhalb 30 Tagen” value [6, 11] of the same molecule?
**A.** Its value is “sieben”.

**Q.** What about the “gestorbene Tiere innerhalb 15 Tagen” value ([6]; 30 treated mice, 10^6 melanoma cells, controls died within 8 - 12 Tagen) of the same molecule?
**A.** The value was “drei”.

**Q.** And the “Anteil überlebender behandelter Tiere, 30 Tage Beobachtungszeitraum” value ([6]; of 30 treated mice)?
**A.** Its value is 50%.

**Q.** And the “überlebende Tiere, 30 Tage Beobachtungszeitraum” value ([6]; of 30 treated mice)?
**A.** The value was 15 Tiere.

**Q.** What about the “Toxizität der therapeutischen Dosierung im Tierversuch” value [7] of the same molecule?
**A.** The value was “untoxisch”.

**Q.** And the “Löslichkeit in Wasser” value ([8]; Wasser)?
**A.** The value was “leicht löslich”.

**Q.** What about the “Löslichkeit in physiologischer Kochsalzlösung” value ([8]; physiologischer Kochsalzlösung) of the same molecule?
**A.** Its value is “leicht löslich”.

**Q.** And the “Löslichkeit in Äthanol” value ([8]; Äthanol)?
**A.** The value was “löslich”.

**Q.** What about the “pK-Wert COOH(1)” value ([9]; COOH(1)) of the same molecule?
**A.** The value was 3,53.

**Q.** What about the “pK-Wert COOH(2)” value ([9]; COOH(2)) of the same molecule?
**A.** Its value is 2,12.

**Q.** And the “pK-Wert NH3 ^+” value ([9]; NH3 ^+)?
**A.** The value was 8,66.

**Q.** What about the “pK-Wert SH” value ([9]; SH) of the same molecule?
**A.** Its value is 9,66.

**Q.** And the “biologische Halbwertszeit in der Augenlinse” value ([10]; human tissue: Augenlinse)?
**A.** The value was “ca. 30 Std”.

**Q.** What about the “biologische Halbwertszeit im Erythrozyten” value ([10]; human tissue: Erythrozyten) of the same molecule?
**A.** Its value is “ca. 100 Std”.

**Q.** What about the “biologische Halbwertszeit im Gehirn” value ([10]; human tissue: Gehirn) of the same molecule?
**A.** The value was “ca. 70 Std”.

**Q.** And the “biologische Halbwertszeit in der Leber” value ([10]; human tissue: Leber)?
**A.** The value was “ca. 4 Std”.
